Measurements reported in ChEMBL document CHEMBL1135886, “Substituted diphenyl sulfides as selective serotonin transporter ligands: synthesis and in vitro evaluation” (J Med Chem, 2002).

Experiments:
[1] = molecular target: Sodium-dependent dopamine transporter (Rattus norvegicus, UniProt P23977); experiment: Inhibition of [3H]-GBR-12,935 binding to dopamine transporter (DAT) of rat striatal membranes; assay type: cell membranes, Membrane
[2] = molecular target: Norepinephrine transporter (Rattus norvegicus, UniProt Q9WTR4); experiment: Inhibition of [3H]nisoxetine binding to norepinephrine transporter (NET) of rat cortical homogenates
[3] = molecular target: Sodium-dependent serotonin transporter (Rattus norvegicus, UniProt P31652); experiment: Inhibition of [3H]paroxetine binding to serotonin transporter (SERT) of rat cortical membrane
Sequence of Sodium-dependent serotonin transporter (P31652 whole entry): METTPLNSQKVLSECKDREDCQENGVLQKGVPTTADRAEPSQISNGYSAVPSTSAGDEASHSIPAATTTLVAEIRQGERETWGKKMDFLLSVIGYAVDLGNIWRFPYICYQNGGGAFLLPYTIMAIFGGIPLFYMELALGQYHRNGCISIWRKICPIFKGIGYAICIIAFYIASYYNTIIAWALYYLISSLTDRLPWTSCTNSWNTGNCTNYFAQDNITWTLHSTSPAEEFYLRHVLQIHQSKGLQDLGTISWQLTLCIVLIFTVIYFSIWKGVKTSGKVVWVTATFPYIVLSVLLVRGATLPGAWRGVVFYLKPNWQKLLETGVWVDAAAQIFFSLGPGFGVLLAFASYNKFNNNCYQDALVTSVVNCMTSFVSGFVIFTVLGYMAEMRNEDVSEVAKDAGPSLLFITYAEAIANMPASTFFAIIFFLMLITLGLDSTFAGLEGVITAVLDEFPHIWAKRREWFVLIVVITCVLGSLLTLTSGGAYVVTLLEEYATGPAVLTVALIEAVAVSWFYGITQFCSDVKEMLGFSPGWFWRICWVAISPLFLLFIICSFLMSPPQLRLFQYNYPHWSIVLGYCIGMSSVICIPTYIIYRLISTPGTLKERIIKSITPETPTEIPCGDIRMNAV

Sequence of Norepinephrine transporter (Q9WTR4 whole entry): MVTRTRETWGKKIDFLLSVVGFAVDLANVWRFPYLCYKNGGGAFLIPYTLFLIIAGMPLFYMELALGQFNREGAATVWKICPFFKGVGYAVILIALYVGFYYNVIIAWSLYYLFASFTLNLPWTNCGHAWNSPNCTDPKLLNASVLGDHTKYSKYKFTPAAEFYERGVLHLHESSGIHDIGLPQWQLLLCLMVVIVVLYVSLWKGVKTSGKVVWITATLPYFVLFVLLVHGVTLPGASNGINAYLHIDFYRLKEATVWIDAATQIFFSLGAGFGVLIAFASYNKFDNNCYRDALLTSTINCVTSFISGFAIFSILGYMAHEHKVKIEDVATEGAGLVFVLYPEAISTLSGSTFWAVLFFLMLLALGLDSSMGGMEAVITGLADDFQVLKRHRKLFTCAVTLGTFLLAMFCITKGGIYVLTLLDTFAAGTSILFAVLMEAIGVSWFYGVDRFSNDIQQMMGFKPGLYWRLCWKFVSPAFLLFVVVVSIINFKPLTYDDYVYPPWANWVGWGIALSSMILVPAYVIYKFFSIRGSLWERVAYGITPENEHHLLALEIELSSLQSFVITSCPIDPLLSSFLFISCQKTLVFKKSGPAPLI
Sequence of Sodium-dependent dopamine transporter (P23977 whole entry): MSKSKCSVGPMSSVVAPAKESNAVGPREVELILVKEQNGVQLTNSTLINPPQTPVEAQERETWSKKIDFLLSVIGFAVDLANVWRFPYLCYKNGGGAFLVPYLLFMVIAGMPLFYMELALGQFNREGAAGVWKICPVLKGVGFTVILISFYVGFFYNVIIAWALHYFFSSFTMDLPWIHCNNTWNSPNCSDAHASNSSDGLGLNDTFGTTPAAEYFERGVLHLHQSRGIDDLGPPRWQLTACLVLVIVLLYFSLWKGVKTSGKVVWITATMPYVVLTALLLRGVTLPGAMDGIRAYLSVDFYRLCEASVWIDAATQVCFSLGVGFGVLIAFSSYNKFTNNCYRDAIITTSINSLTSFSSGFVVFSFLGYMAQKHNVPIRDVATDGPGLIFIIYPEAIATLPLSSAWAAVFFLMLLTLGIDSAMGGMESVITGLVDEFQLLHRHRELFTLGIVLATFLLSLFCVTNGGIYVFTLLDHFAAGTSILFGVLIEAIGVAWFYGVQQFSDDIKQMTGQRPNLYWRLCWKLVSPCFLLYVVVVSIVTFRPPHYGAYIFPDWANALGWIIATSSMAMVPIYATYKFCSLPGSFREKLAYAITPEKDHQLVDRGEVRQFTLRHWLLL

Structure (SMILES) | Ki [1] [nM] | Ki [2] [nM] | Ki [3] [nM]
CN(C)C(=O)c1ccccc1Sc1ccc(F)cc1C=O | > 1000 | > 1000 | 695
CN(CCF)Cc1ccccc1Sc1ccc(I)cc1N | > 1000 | > 1000 | 19.3
CNCc1ccccc1Sc1ccc(Br)cc1N | 171 | 107 | 1.49
CN(C)Cc1ccccc1Sc1ccc(/C=C/I)cc1N | > 1000 | 80.2 | 53.3
CNCc1ccccc1Sc1ccc(I)cc1N | 818 | 714 | 1.25
CN(C)C(=O)c1ccccc1Sc1ccc(Br)cc1C=O | > 1000 | > 1000 | > 1000

Other lines, results leading:

Ki [1] [nM] | Ki [2] [nM] | Ki [3] [nM] | Structure (SMILES)
> 1000 | 325 | 1.65 | Cc1ccc(Sc2ccccc2CN(C)C)c(N)c1
171 | 107 | 2.23 | CN(C)Cc1ccccc1Sc1ccc(Br)cc1N
> 1000 | 326 | 2.75 | COCc1cc(Br)ccc1Sc1ccccc1CN(C)C
339 | 28.4 | 7.96 | CN(C)Cc1ccccc1Sc1ccc(F)cc1CO
> 1000 | 683 | – | CN(C)Cc1ccccc1Sc1ccc(I)cc1N
950 | 5.8 | 1.92 | CN(C)Cc1ccccc1Sc1ccc(Br)cc1CO
172 | 212 | 2.5 | COCc1cc(I)ccc1Sc1ccccc1CN(C)C
760 | 12.8 | 0.98 | CNCc1ccccc1Sc1ccc(I)cc1CO
